From patent publication US5912372A, “Water-miscible esters of monoglycerides having antimicrobial activity” (priority 1997, dated 1999)

System: human respiratory syncytial virus (RSV)
Test: RSV inhibition assay in LLC-MK2 cells, PBS as diluent
Assay type: cell-based
Details: compound alone
Procedure: Additional studies were performed to determine the synergistic anti-viral effects of diacetyltartaric acids esters of monoglycerides, lipophilic monoglycerides (MG) and carrageenan. These studies were carried out using […] and PBS as the diluent. The RSV inhibition assay semi-quantitativelydetermines the ability of a test material (antibody or other bioactive compound) to inhibit the infection of monkey kidney cells (LLC-MK2) by human respiratory syncytial virus (RSV). Infected cells are identified using an immunoperoxidase method and counted. The method is performed in a microtiter format and is described briefly below:
LLC-MK2 rhesus monkey kidney cells were obtained from the American Type Culture Collection and were cultured in Eagles modified essential medium (EMEM) supplemented with 10% fetal bovine serum. For RSV inhibition assays, LLC-MK2 cells at 5,000 cells/well were seeded into fibronectin treated microtiter plates and incubated for 3-4 days prior to use in the infectivity reduction assay. […] Plates were then rinsed as above with PBS/CEA, and the number of stained RSV-infected cells (IC) per well determined using an inverted microscope. The number of ICs' in triplicate wells was compared with the number of ICs' of virus control wells (mean of 9) and the percent inhibition (PI) calculated; [PI=1.0-[Mean ICs' per well of test sample/Mean ICs' per well of virus control]. […]

## Carrageenan
  Enhancement Factor: 1.0
